{
  "source": "patent US20090118470A1",
  "about": "(priority 2005, published 2009)",
  "key": {"prions [1]": {"tested_on": "prions", "conditions": "cited from earlier work; for effect on prions: alcohols alone"}, "[2]": {"tested_on": "263K strain of scrapie agent", "assay_type": "in vivo, Syrian gold hamsters", "conditions": "for inactivation factor: at 80° C.; for Mean incubation period ± SE: diseased animals only; for No. infected/No. injected: intracerebral inoculation"}, "prions [3]": {"tested_on": "prions", "conditions": "cited from earlier work"}},
  "note": "Where two headings read alike, the source gives them in different places.",
  "data": [
    {"compound": "CCCO", "note": "[1-propanol]", "values": [
      {"measurement": "effect on prions", "setting": "prions [1]", "result": "do not have an effect on prions"}
    ]},
    {"compound": "CC(C)O", "note": "[2-propanol]", "values": [
      {"measurement": "effect on prions", "setting": "prions [1]", "result": "do not have an effect on prions"}
    ]},
    {"compound": "O", "note": "[100% water, water]", "values": [
      {"measurement": "inactivation factor", "setting": "[2]", "result": "about 10"},
      {"measurement": "Infectivity titre ± SE", "setting": "[2]; heat treatment 80° C./20 min.", "result": "7.2 ± 0.7", "unit": "log ID50 per sample"},
      {"measurement": "Mean incubation period ± SE", "setting": "[2]; heat treatment 80° C./20 min.", "result": "78 ± 4", "unit": "days"},
      {"measurement": "No. infected/No. injected", "setting": "[2]; heat treatment 80° C./20 min.", "result": "5/5"},
      {"measurement": "Infectivity titre ± SE", "setting": "[2]; heat treatment 90° C./20 min.", "result": "6.2 ± 0.2", "unit": "log ID50 per sample"},
      {"measurement": "Mean incubation period ± SE", "setting": "[2]; heat treatment 90° C./20 min.", "result": "85 ± 1", "unit": "days"},
      {"measurement": "No. infected/No. injected", "setting": "[2]; heat treatment 90° C./20 min.", "result": "5/5"},
      {"measurement": "Infectivity titre ± SE", "setting": "[2]; heat treatment 100° C./20 min.", "result": "5.0 ± 0.1", "unit": "log ID50 per sample"},
      {"measurement": "Mean incubation period ± SE", "setting": "[2]; heat treatment 100° C./20 min.", "result": "97 ± 1", "unit": "days"},
      {"measurement": "No. infected/No. injected", "setting": "[2]; heat treatment 100° C./20 min.", "result": "5/5"}
    ]},
    {"compound": "CCCCCCCCCCCCOS(=O)(=O)[O-].[Na+]", "note": "[SDS, Sodium dodecylsulfate]", "values": [
      {"measurement": "residual infectivity after treatment", "setting": "prions [1]; heated in SDS solution (3% or greater; 0.10 M) for at least ten minutes, without autoclaving", "result": "Some residual infectivity remains"}
    ]},
    {"compound": "CCO", "note": "[ethanol]", "values": [
      {"measurement": "effect on prions", "setting": "prions [1]", "result": "do not have an effect on prions"}
    ]},
    {"compound": "OCC(O)CO", "note": "[glycerol]", "values": [
      {"measurement": "inactivation factor", "setting": "[2]", "result": "< 10"}
    ]},
    {"compound": "Cl.N=C(N)N", "note": "[guanidinium hydrochloride]", "values": [
      {"measurement": "conversion of prions into an irregular coiled structure", "setting": "prions [3]; 6 N guanidinium hydrochloride (573 g/l)", "result": "complete conversion"}
    ]},
    {"compound": "NC(N)=O", "note": "[urea]", "values": [
      {"measurement": "conversion of prions into an irregular coiled structure", "setting": "prions [3]; 8 N urea (480 g/l)", "result": "complete conversion"}
    ]},
    {"compound": "guanidinium isothiocyanate", "values": [
      {"measurement": "prion inactivation", "setting": "prions [1]; concentration of 3 M, immersion times longer than 1 hour", "result": "inactivates prions"},
      {"measurement": "illness of experimental animals after intracerebral inoculation", "setting": "prions [1]; concentration of 4 M, at least 15 minutes residence time", "result": "no experimental animal in various experiments is reported to become ill"},
      {"measurement": "denaturing effect", "setting": "prions [3]; 1.5 N solution (177 g/l)", "result": "partially denaturing effect"}
    ]}
  ]
}
